Read-outs that look alike come from different tables or passages of the source.
How the values were obtained:
[1] = Cytotoxicity (EZ-Cytox WST) in LLC-MK2 cells; type: cell-based; details: rhesus monkey, 72 h exposure
Experimental: Cells were seeded at 2 × 10^4 cells per well in 96-well plates and, after overnight attachment, exposed to test compounds for 72 h in maintenance medium. The final DMSO concentration was ≤0.1% (v/v) for all conditions, including vehicle controls. Cell viability was quantified using EZ-Cytox WST reagent (DoGenBio, Seoul, Republic of Korea) according to the manufacturer’s instructions; absorbance was read at 450 nm on a SpectraMax i3x microplate reader (Molecular Devices, San Jose, CA, USA). Viability for each well was normalized to the mean of vehicle-treated (mock) controls on the same plate and expressed as percent viability. Each condition included technical replicates (n = 3) per experiment. Concentration–response data from ≥3 independent experiments were fit to a four-parameter logistic (4PL) model in GraphPad Prism 10.1.2 (GraphPad Software, San Diego, CA, USA) (log10-transformed concentrations; bottom and top unconstrained).

HCoV-NL63 [2] = test: Primary antiviral screening (virus inhibition) in HCoV-NL63-infected LLC-MK2 cells; type: cell-based, Human coronavirus NL63; details: for SI (=CC50/EC50): HCoV-NL63/LLC-MK2; for antiviral effect: HCoV-NL63/LLC-MK2, up to 25 µM
Experimental: For antiviral activity, cells in 96-well plates were infected and treated with test compounds as indicated and incubated for 48–72 h. Cell viability was quantified by WST (EZ-Cytox) at 450 nm on the same reader. Cytoprotective effect was calculated by normalizing to infected DMSO controls and converting to percent protection: % Protection = ((V_drug + virus − V_virus-only)/(V_mock − V_virus-only)) × 100.
We screened 11 oxazole-4-carboxamide derivatives (Figure 1) against HCoV-NL63 in LLC-MK2 cells and quantified antiviral activity and cytotoxicity (Figure 2). Several derivatives inhibited NL63 with distinct selectivity profiles. […] Visible crystals or precipitates formed at ≥50 µM without loss of viability or morphological change; therefore, downstream assays were performed at ≤25 µM.

HCoV-NL63 [3] = test: Combination (concentration matrix, ZIP synergy) HCoV-NL63/LLC-MK2; type: cell-based, Human coronavirus NL63; details: HCoV-NL63/LLC-MK2, alone
Experimental: Concentration matrices were generated within the non-cytotoxic range for KB-2777 + nirmatrelvir (HCoV-NL63/LLC-MK2) and KB-2777 + GS-441524 (HCoV-OC43/Vero E6). Antiviral activity was measured at 48 h post-infection. Interaction surfaces and ZIP synergy scores were computed using SynergyFinder (v3) with default normalization (virus + DMSO control = 0% inhibition). Heatmaps and δ-surfaces were exported directly from SynergyFinder.

[4] = Human coronavirus NL63, LLC-MK2, HCoV-NL63/LLC-MK2, primary screen, read-out: EC50
[5] = HCoV-NL63/LLC-MK2, primary screen, read-out: EC50
[6] = Human coronavirus NL63, LLC-MK2, HCoV-NL63/LLC-MK2, primary screen

SMILES	CC50 at 72 h [1] [µM]	SI (=CC50/EC50) (HCoV-NL63 [2])	EC50 (HCoV-NL63 [2]; [4]) [µM]	antiviral effect (HCoV-NL63 [2])	EC50 (HCoV-NL63 [2]; [5]) [µM]	EC50 (HCoV-NL63 [2]; [6]) [µM]	antiviral activity of the single agent in the combination assay (HCoV-NL63 [3])
COC(=O)[C@H](C)NC(=O)c1nc(-c2ccc(C(F)(F)F)cc2)oc1-c1cccc(OC)c1 [KB-2767]	30.8	3.33	9.26	–	–	–	–
COc1cccc(-c2oc(-c3ccc(C(F)(F)F)cc3)nc2C(=O)N[C@@H](C)C(N)=O)c1 [KB-2775]	3.12	–	–	no detectable antiviral effect	–	–	–
COC(=O)[C@H](C)NC(=O)c1nc(-c2ccc(C(F)(F)F)cc2)oc1-c1ccc(SC)cc1 [KB-2738]	21.8	2.84	7.7	–	–	–	–
CSc1cccc(-c2oc(-c3ccc(C(F)(F)F)cc3)nc2C(=O)N[C@@H](C)C(N)=O)c1 [KB-2769]	< 6.25	<2.67	2.34	–	–	–	–
CSc1cccc(-c2oc(-c3ccc(C(F)(F)F)cc3)nc2C(=O)N[C@@H](CC(C)C)C(N)=O)c1 [KB-2771]	< 25	–	–	–	4.27	4 to 5	–
COC(=O)C(CC1CCNC1=O)NC(=O)c1nc(-c2ccc(C(F)(F)F)cc2)oc1-c1cccc(SC)c1 (stereo not shown) [KB-2772]	> 50	–	–	no detectable antiviral effect	–	–	–
COC(=O)[C@H](CC(C)C)NC(=O)c1nc(-c2ccc(C(F)(F)F)cc2)oc1-c1cccc(OC)c1 [KB-2774]	25.2	–	–	–	4.39	4 to 5	–
COC(=O)[C@H](CC(C)C)NC(=O)c1nc(-c2ccc(C(F)(F)F)cc2)oc1-c1cccc(SC)c1 [KB-2768]	34.1	5.12	6.66	–	–	–	–
COC(=O)[C@H](C)NC(=O)c1nc(-c2ccc(C(F)(F)F)cc2)oc1-c1cccc(SC)c1 [KB-2742]	< 25	<5.40	4.63	–	–	–	–
CC(C)(C)[C@H](NC(=O)C(F)(F)F)C(=O)N1C[C@H]2[C@@H]([C@H]1C(=O)N[C@H](C#N)C[C@@H]1CCNC1=O)C2(C)C [nirmatrelvir]	–	–	–	–	–	–	limited activity
COC(=O)C(CC1CCNC1=O)NC(=O)c1nc(-c2ccc(C(F)(F)F)cc2)oc1-c1cccc(OC)c1 (stereo not shown) [KB-2773]	< 25	–	–	no detectable antiviral effect	–	–	–
